Test systems include T47D; SW-620; SN12C; U-251; IGROV-1; OVCAR-4; SR; NCI/ADR-RES; SF-539; HCT-15; MDA-MB-231; PC-3; TK-10; RXF 393; OVCAR-3; SF-268; HCT-116; MDA-MB-435; HCC 2998; NCI-H226.
Holding throughout (assay): NCI anticancer screen, dose series, 48 h

From ChEMBL document CHEMBL1201862, “PubChem BioAssay data set” (2004) come the findings set out here.

Structures are written as SMILES.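 48-hour exposure; five concentrations; linearly interpolated endpoints. GI50 marks 50% less growth.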 The source made the active and inactive calls. Cut-off read from the data, not from the text of the source: active = GI50 up to about 1.1 µM and inactive = higher.

As to `CCCCCCCCCCCCCCCCCCOCC(COCCOCC[N+]1(CCCCCC(=O)[O-])CCCC1)Oc1ncccn1` (stereo not given), the GI50 in the assay on T47D was 5.13 µM (inactive); in the assay with SW-620, 4.57 µM (inactive); in the assay with SN12C, 4.44 µM (inactive); in the assay on U-251, 0.547 µM (active); in the assay with IGROV-1 it was 0.622 µM (active); with OVCAR-4, 2.2 µM (inactive). Moreover, the GI50 was 3.18 µM (inactive) in the assay with SR; 15.4 µM (inactive) in the assay with NCI/ADR-RES; 4.36 µM (inactive) in the assay with SF-539; 12.8 µM in the assay with HCT-15; 8.22 µM (inactive) with MDA-MB-231; 0.643 µM (active) in the assay with PC-3. The GI50 in the assay on TK-10 was 4.06 µM (inactive); in the assay on RXF 393, 1.4 µM (inactive); in the assay on OVCAR-3, 5.2 µM (inactive); in the assay with SF-268, 3.51 µM (inactive); in the assay on HCT-116, 1.82 µM (inactive); with MDA-MB-435, 8.79 µM (inactive). Moreover, the GI50 in the assay on HCC 2998 is 2.51 µM (inactive); with NCI-H226, 11.2 µM (inactive).

`CC(=O)OC1C(C)OC(OC2C[C@](O)(C(C)=O)Cc3c(O)c4c(c(O)c32)C(=O)c2ccccc2C4=O)C(F)C1OC(C)=O` (stereo not given in full): the GI50 with T47D is 0.522 µM (active); in the assay on SW-620 it was 0.495 µM (active); with SN12C, 0.281 µM (active); in the assay on U-251, 0.238 µM (active); in the assay with IGROV-1, 0.243 µM (active); in the assay with OVCAR-4, 3.74 µM (inactive). In addition, the GI50 is 0.101 µM (active) with SR; 1.45 µM (inactive) in the assay on NCI/ADR-RES; 0.194 µM (active) in the assay with SF-539; 0.358 µM in the assay with HCT-15; 1.06 µM (active) with MDA-MB-231; 0.971 µM (active) in the assay with PC-3. Also, the GI50 with TK-10 is 1.6 µM (inactive); in the assay on RXF 393, 2.74 µM (inactive); in the assay with OVCAR-3 it was 2.52 µM (inactive); with SF-268, 0.541 µM (active); in the assay with HCT-116, 0.318 µM (active); in the assay on MDA-MB-435, 2.25 µM (inactive). Further, the GI50 with HCC 2998 was 1.91 µM (inactive); in the assay on NCI-H226, 0.335 µM (active).

As to `COc1cc2cc(C(=O)N3CC(CCl)c4ccc(N(C)C)cc43)[nH]c2c(OC)c1OC` (stereo not given), the GI50 in the assay on T47D was 0.078 µM (active); in the assay on SW-620, 0.12 µM (active); with SN12C, 0.198 µM (active); in the assay on U-251 it was 0.0897 µM (active); with IGROV-1 it was 0.0601 µM (active); with OVCAR-4 it was 0.124 µM (active). Also, the GI50 in the assay on SR is 0.0151 µM (active); in the assay on NCI/ADR-RES, 0.0449 µM (active); in the assay with SF-539, 0.0559 µM (active); in the assay with HCT-15 it was 0.145 µM; in the assay with MDA-MB-231, 0.234 µM (active); in the assay on PC-3, 0.0676 µM (active). The GI50 is 0.13 µM (active) in the assay on TK-10; 0.0267 µM (active) with RXF 393; 0.0959 µM (active) in the assay with OVCAR-3; 0.0678 µM (active) with SF-268; 0.0542 µM (active) with HCT-116; 0.168 µM (active) in the assay with MDA-MB-435. The GI50 in the assay on HCC 2998 is 0.0303 µM (active); in the assay on NCI-H226 it was 0.152 µM (active).

For the molecule `CC1=NN(c2nc(N)nc(/C(C#N)=C/c3ccc([N+](=O)[O-])o3)n2)C(C)(C)C1`, the GI50 with T47D was 2.61 µM (inactive); with SW-620, 1.76 µM (inactive); with SN12C it was 1.88 µM (inactive); in the assay with U-251, 5.21 µM (inactive); in the assay with IGROV-1, 2.05 µM (inactive); with OVCAR-4, 10.2 µM (inactive). The GI50 in the assay on SR was 2.58 µM (inactive); in the assay with NCI/ADR-RES, 10.8 µM (inactive); in the assay on SF-539 it was 3.22 µM (inactive); with HCT-15, 1.42 µM; with MDA-MB-231, 1.81 µM (inactive); in the assay with PC-3 it was 9.68 µM (inactive). Besides, the GI50 in the assay on TK-10 is 2 µM (inactive); in the assay on RXF 393, 1.75 µM (inactive); in the assay on OVCAR-3 it was 3.32 µM (inactive); in the assay on SF-268 it was 3.85 µM (inactive); in the assay on HCT-116, 1.45 µM (inactive); in the assay with MDA-MB-435, 2.39 µM (inactive). Also, the GI50 in the assay on HCC 2998 was 15.8 µM (inactive); with NCI-H226, 2.24 µM (inactive).

In the case of `Cc1nnc2sc(-c3ccc([N+](=O)[O-])o3)nn12`, the GI50 in the assay with T47D is 20 µM (inactive); in the assay with SW-620 it was 4.85 µM (inactive); with SN12C, 11.6 µM (inactive); in the assay with U-251 it was 14.7 µM (inactive); with IGROV-1, 15.7 µM (inactive); in the assay on OVCAR-4, 15 µM (inactive). In addition, the GI50 with SR is 8.61 µM (inactive); with NCI/ADR-RES, 16.4 µM (inactive); in the assay with SF-539, 4.84 µM (inactive); in the assay with HCT-15, 5.06 µM; with MDA-MB-231 it was 14 µM (inactive); in the assay with PC-3, 14.7 µM (inactive). The GI50 is 15.3 µM (inactive) with TK-10; 11.6 µM (inactive) in the assay on RXF 393; 12.8 µM (inactive) in the assay on OVCAR-3; 13.2 µM (inactive) in the assay with SF-268; 6.46 µM (inactive) in the assay with HCT-116; 4.37 µM (inactive) with MDA-MB-435. In addition, the figures for the GI50 in the assay with HCC 2998 and in the assay on NCI-H226 were 12.5 µM (inactive) and 15 µM (inactive), respectively.

For the molecule `CC(=O)Nc1ccc2cc3[nH]c4cc(NC(C)=O)ccc4c3nc2c1`, the GI50 in the assay on T47D is 31.3 µM (inactive); in the assay with SW-620, > 100 µM (inactive); in the assay on SN12C, > 100 µM (inactive); in the assay with U-251, 77.4 µM (inactive); with IGROV-1, > 100 µM (inactive); in the assay with OVCAR-4, > 100 µM (inactive). Also, the GI50 was 61.1 µM (inactive) in the assay with SR; > 100 µM (inactive) in the assay on NCI/ADR-RES; > 100 µM (inactive) in the assay with SF-539; > 100 µM in the assay with HCT-15; > 100 µM (inactive) in the assay with MDA-MB-231; > 100 µM (inactive) in the assay with PC-3. The GI50 with TK-10, with RXF 393, in the assay with OVCAR-3, in the assay with SF-268, in the assay on HCT-116 and in the assay on MDA-MB-435 was > 100 µM (inactive) in each case. The GI50 in the assay on HCC 2998 and with NCI-H226 was > 100 µM (inactive) in each case.

Regarding `COc1cc2c(cc1OC)C1CCc3ccccc3CN1CC2` (stereo not given), the GI50 with T47D, in the assay with SW-620, in the assay with SN12C, in the assay on U-251, in the assay on IGROV-1 and in the assay with OVCAR-4 was > 100 µM (inactive) throughout. Also, the GI50 in the assay on SR is > 100 µM (inactive); with NCI/ADR-RES, > 100 µM (inactive); with SF-539 it was > 100 µM (inactive); with HCT-15, > 100 µM; with MDA-MB-231, > 100 µM (inactive); in the assay on PC-3 it was > 100 µM (inactive). The GI50 with TK-10, with RXF 393, in the assay on OVCAR-3, in the assay with SF-268, in the assay with HCT-116 and in the assay with MDA-MB-435 was > 100 µM (inactive) each time. Further, the GI50 in the assay with HCC 2998 and with NCI-H226 was > 100 µM (inactive) throughout.

For the molecule `COC(=O)Cn1cnc2c(Cl)nc(Nc3ccccc3)nc21`, the GI50 in the assay with T47D is > 100 µM (inactive); with SW-620, 65 µM (inactive); with SN12C, 28.8 µM (inactive); with U-251, 66.7 µM (inactive); with IGROV-1, 20.8 µM (inactive); in the assay on OVCAR-4 it was 87.3 µM (inactive). For the same molecule, the GI50 was 40.1 µM (inactive) in the assay with SR; 73.3 µM (inactive) in the assay on NCI/ADR-RES; > 100 µM (inactive) with SF-539; 21.4 µM in the assay on HCT-15; 38 µM (inactive) in the assay on MDA-MB-231; 20.7 µM (inactive) in the assay on PC-3. For the same molecule, the GI50 in the assay with TK-10 was > 100 µM (inactive); in the assay with RXF 393, 36.6 µM (inactive); in the assay on OVCAR-3 it was 21.1 µM (inactive); in the assay with SF-268 it was > 10 µM (inactive); with HCT-116, 35.5 µM (inactive); in the assay on MDA-MB-435, 26.7 µM (inactive). Further, the results for the GI50 with HCC 2998 and with NCI-H226 were 6.52 µM (inactive) and > 100 µM (inactive), respectively.
